Results from ChEMBL document CHEMBL3044779, “The action of herbicides on fatty acid biosynthesis and elongation in barley and cucumber” (Pest Manag Sci, 2010).
Active and inactive are the calls of the source. No cut-off for these calls is given here.

Columns and labels:
Hordeum vulgare [1] = experiment: Inhibition of fatty acid synthesis in Hordeum vulgare (barley) using [14C]acetate assessed as [14C]-labeled 22C fatty acid level at 200 uM after 3 hr by liquid scintillation counting (reference value: 5.5 +/- 0.2%); type: functional; parameters: scale not given: the % may be the effect or the level left
Cucumis sativus [2] = experiment: Inhibition of fatty acid synthesis in Cucumis sativus (cucumber) assessed as inhibition of [14C]malonate incoporation in total fatty acids at 200 uM measured after 3 hr by liquid scintillation counting; type: functional, organism-based
Cucumis sativus [3] = experiment: Inhibition of fatty acid synthesis in Cucumis sativus (cucumber) using [14C]acetate assessed as [14C]-labeled 16C fatty acid level at 200 uM after 3 hr by liquid scintillation counting (reference value: 29.2 +/- 3.5%); type: functional; parameters: scale not given: the % may be the effect or the level left
Cucumis sativus [4] = experiment: Inhibition of fatty acid synthesis in Cucumis sativus (cucumber) using [14C]acetate assessed as [14C]-labeled 20C fatty acid level at 200 uM after 3 hr by liquid scintillation counting (reference value: 5.1 +/- 0.7%); type: functional; parameters: scale not given: the % may be the effect or the level left
Cucumis sativus [5] = experiment: Inhibition of fatty acid synthesis in Cucumis sativus (cucumber) using [14C]malonate assessed as inhibition of [14C]-labeled 22C fatty acid production at 200 uM after 3 hr by liquid scintillation counting; type: functional, organism-based
Hordeum vulgare [6] = experiment: Inhibition of fatty acid synthesis in Hordeum vulgare (barley) assessed as inhibition of [14C]malonate incoporation in total fatty acids at 200 uM measured after 3 hr by liquid scintillation counting; type: functional, organism-based
Hordeum vulgare [7] = experiment: Inhibition of fatty acid synthesis in Hordeum vulgare (barley) using [14C]acetate assessed as [14C]-labeled 18C fatty acid level at 200 uM after 3 hr by liquid scintillation counting (reference value: 60.3 +/- 1.3%); type: functional; parameters: scale not given: the % may be the effect or the level left
Hordeum vulgare [8] = experiment: (§1) Inhibition of fatty acid synthesis in Hordeum vulgare (barley) assessed as inhibition of [14C]acetate incoporation in total fatty acids at 200 uM measured as total disintegration per g of fresh weight after 3 hr by liquid scintillation counting (reference value: 5.7 +/- 0.5 dpm x 10^6 g'1 fresh wt); type: functional
Cucumis sativus [9] = experiment: Inhibition of fatty acid synthesis in Cucumis sativus (cucumber) using [14C]acetate assessed as [14C]-labeled 22C fatty acid level at 200 uM after 3 hr by liquid scintillation counting (reference value: 17.9 +/- 2.5%); type: functional; parameters: scale not given: the % may be the effect or the level left
Hordeum vulgare [10] = experiment: Inhibition of fatty acid synthesis in Hordeum vulgare (barley) using [14C]acetate assessed as [14C]-labeled 16C fatty acid level at 200 uM after 3 hr by liquid scintillation counting (reference value: 29.5 +/- 1.3%); type: functional; parameters: scale not given: the % may be the effect or the level left
Cucumis sativus [11] = experiment: Inhibition of fatty acid synthesis in Cucumis sativus (cucumber) using [14C]malonate assessed as inhibition of [14C]-labeled 18C fatty acid production at 200 uM after 3 hr by liquid scintillation counting; type: functional, organism-based
Cucumis sativus [12] = experiment: Inhibition of fatty acid synthesis in Cucumis sativus (cucumber) using [14C]malonate assessed as inhibition of [14C]-labeled 20C fatty acid production at 200 uM after 3 hr by liquid scintillation counting; type: functional, organism-based
Cucumis sativus [13] = experiment: Inhibition of fatty acid synthesis in Cucumis sativus (cucumber) using [14C]acetate assessed as [14C]-labeled 24C fatty acid level at 200 uM after 3 hr by liquid scintillation counting (reference value: 6.5 +/- 1%); type: functional; parameters: scale not given: the % may be the effect or the level left
Cucumis sativus [14] = experiment: Inhibition of fatty acid synthesis in Cucumis sativus (cucumber) using [14C]malonate assessed as inhibition of [14C]-labeled 24C fatty acid production at 200 uM after 3 hr by liquid scintillation counting; type: functional, organism-based
Hordeum vulgare [15] = experiment: Inhibition of fatty acid synthesis in Hordeum vulgare (barley) using [14C]malonate assessed as inhibition of [14C]-labeled 24C fatty acid production at 200 uM after 3 hr by liquid scintillation counting; type: functional, organism-based
Hordeum vulgare [16] = experiment: Inhibition of fatty acid synthesis in Hordeum vulgare (barley) using [14C]malonate assessed as inhibition of [14C]-labeled 22C fatty acid production at 200 uM after 3 hr by liquid scintillation counting; type: functional, organism-based
Cucumis sativus [17] = experiment: Inhibition of fatty acid synthesis in Cucumis sativus (cucumber) using [14C]acetate assessed as [14C]-labeled 18C fatty acid level at 200 uM after 3 hr by liquid scintillation counting (reference value: 41.2 +/- 1.1%); type: functional; parameters: scale not given: the % may be the effect or the level left
Cucumis sativus [18] = experiment: Inhibition of fatty acid synthesis in Cucumis sativus (cucumber) using [14C]malonate assessed as inhibition of [14C]-labeled 16C fatty acid production at 200 uM after 3 hr by liquid scintillation counting; type: functional, organism-based
Hordeum vulgare [19] = experiment: Inhibition of fatty acid synthesis in Hordeum vulgare (barley) using [14C]malonate assessed as inhibition of [14C]-labeled 18C fatty acid production at 200 uM after 3 hr by liquid scintillation counting; type: functional, organism-based
Hordeum vulgare [20] = experiment: Inhibition of fatty acid synthesis in Hordeum vulgare (barley) using [14C]acetate assessed as [14C]-labeled 20C fatty acid level at 200 uM after 3 hr by liquid scintillation counting (reference value: 4.7 +/- 1.6%); type: functional; parameters: scale not given: the % may be the effect or the level left
Cucumis sativus [21] = experiment: as §1, with “Cucumis sativus (cucumber)” for “Hordeum vulgare (barley)”, “6.4” for “5.7”, “1.2” for “0.5”; type: functional
Hordeum vulgare [22] = experiment: Inhibition of fatty acid synthesis in Hordeum vulgare (barley) using [14C]malonate assessed as inhibition of [14C]-labeled 16C fatty acid production at 200 uM after 3 hr by liquid scintillation counting; type: functional, organism-based
Hordeum vulgare [23] = experiment: Inhibition of fatty acid synthesis in Hordeum vulgare (barley) using [14C]malonate assessed as inhibition of [14C]-labeled 20C fatty acid production at 200 uM after 3 hr by liquid scintillation counting; type: functional, organism-based
Cucumis sativus [24] = experiment: Inhibition of fatty acid synthesis in Cucumis sativus (cucumber) using [14C]acetate assessed as [14C]-labeled 22C fatty acid level at 300 uM after 3 hr by liquid scintillation counting (reference value: 17.9 +/- 2.5%); type: functional; parameters: scale not given: the % may be the effect or the level left
Hordeum vulgare [25] = experiment: Inhibition of fatty acid synthesis in Hordeum vulgare (barley) using [14C]malonate assessed as inhibition of [14C]-labeled 22C fatty acid production at 300 uM after 3 hr by liquid scintillation counting; type: functional, organism-based
Cucumis sativus [26] = experiment: Inhibition of fatty acid synthesis in Cucumis sativus (cucumber) using [14C]malonate assessed as inhibition of [14C]-labeled 22C fatty acid production at 300 uM after 3 hr by liquid scintillation counting; type: functional, organism-based
Hordeum vulgare [27] = experiment: Inhibition of fatty acid synthesis in Hordeum vulgare (barley) assessed as inhibition of [14C]malonate incoporation in total fatty acids at 300 uM measured after 3 hr by liquid scintillation counting; type: functional, organism-based
Hordeum vulgare [28] = experiment: Inhibition of fatty acid synthesis in Hordeum vulgare (barley) using [14C]acetate assessed as [14C]-labeled 18C fatty acid level at 300 uM after 3 hr by liquid scintillation counting (reference value: 60.3 +/- 1.3%); type: functional; parameters: scale not given: the % may be the effect or the level left
Cucumis sativus [29] = experiment: Inhibition of fatty acid synthesis in Cucumis sativus (cucumber) using [14C]malonate assessed as inhibition of [14C]-labeled 20C fatty acid production at 300 uM after 3 hr by liquid scintillation counting; type: functional, organism-based
Cucumis sativus [30] = experiment: Inhibition of fatty acid synthesis in Cucumis sativus (cucumber) using [14C]acetate assessed as [14C]-labeled 16C fatty acid level at 300 uM after 3 hr by liquid scintillation counting (reference value: 29.2 +/- 3.5%); type: functional; parameters: scale not given: the % may be the effect or the level left
Hordeum vulgare [31] = experiment: (§2) Inhibition of fatty acid synthesis in Hordeum vulgare (barley) assessed as inhibition of [14C]acetate incoporation in total fatty acids at 300 uM measured as total disintegration per g of fresh weight after 3 hr by liquid scintillation counting (reference value: 5.7 +/- 0.5 dpm x 10^6 g'1 fresh wt); type: functional
Cucumis sativus [32] = experiment: Inhibition of fatty acid synthesis in Cucumis sativus (cucumber) using [14C]malonate assessed as inhibition of [14C]-labeled 24C fatty acid production at 300 uM after 3 hr by liquid scintillation counting; type: functional, organism-based
Cucumis sativus [33] = experiment: Inhibition of fatty acid synthesis in Cucumis sativus (cucumber) using [14C]malonate assessed as inhibition of [14C]-labeled 16C fatty acid production at 300 uM after 3 hr by liquid scintillation counting; type: functional, organism-based
Cucumis sativus [34] = experiment: Inhibition of fatty acid synthesis in Cucumis sativus (cucumber) assessed as inhibition of [14C]malonate incoporation in total fatty acids at 300 uM measured after 3 hr by liquid scintillation counting; type: functional, organism-based
Cucumis sativus [35] = experiment: Inhibition of fatty acid synthesis in Cucumis sativus (cucumber) using [14C]acetate assessed as [14C]-labeled 24C fatty acid level at 300 uM after 3 hr by liquid scintillation counting (reference value: 6.5 +/- 1%); type: functional; parameters: scale not given: the % may be the effect or the level left
Hordeum vulgare [36] = experiment: Inhibition of fatty acid synthesis in Hordeum vulgare (barley) using [14C]malonate assessed as inhibition of [14C]-labeled 24C fatty acid production at 300 uM after 3 hr by liquid scintillation counting; type: functional, organism-based
Hordeum vulgare [37] = experiment: Inhibition of fatty acid synthesis in Hordeum vulgare (barley) using [14C]acetate assessed as [14C]-labeled 16C fatty acid level at 300 uM after 3 hr by liquid scintillation counting (reference value: 29.5 +/- 1.3%); type: functional; parameters: scale not given: the % may be the effect or the level left
Cucumis sativus [38] = experiment: Inhibition of fatty acid synthesis in Cucumis sativus (cucumber) using [14C]malonate assessed as inhibition of [14C]-labeled 18C fatty acid production at 300 uM after 3 hr by liquid scintillation counting; type: functional, organism-based
Cucumis sativus [39] = experiment: Inhibition of fatty acid synthesis in Cucumis sativus (cucumber) using [14C]acetate assessed as [14C]-labeled 18C fatty acid level at 300 uM after 3 hr by liquid scintillation counting (reference value: 41.2 +/- 1.1%); type: functional; parameters: scale not given: the % may be the effect or the level left
Hordeum vulgare [40] = experiment: Inhibition of fatty acid synthesis in Hordeum vulgare (barley) using [14C]acetate assessed as [14C]-labeled 20C fatty acid level at 300 uM after 3 hr by liquid scintillation counting (reference value: 4.7 +/- 1.6%); type: functional; parameters: scale not given: the % may be the effect or the level left
Hordeum vulgare [41] = experiment: Inhibition of fatty acid synthesis in Hordeum vulgare (barley) using [14C]malonate assessed as inhibition of [14C]-labeled 20C fatty acid production at 300 uM after 3 hr by liquid scintillation counting; type: functional, organism-based
Cucumis sativus [42] = experiment: Inhibition of fatty acid synthesis in Cucumis sativus (cucumber) using [14C]acetate assessed as [14C]-labeled 20C fatty acid level at 300 uM after 3 hr by liquid scintillation counting (reference value: 5.1 +/- 0.7%); type: functional; parameters: scale not given: the % may be the effect or the level left
Hordeum vulgare [43] = experiment: Inhibition of fatty acid synthesis in Hordeum vulgare (barley) using [14C]malonate assessed as inhibition of [14C]-labeled 18C fatty acid production at 300 uM after 3 hr by liquid scintillation counting; type: functional, organism-based
Hordeum vulgare [44] = experiment: Inhibition of fatty acid synthesis in Hordeum vulgare (barley) using [14C]acetate assessed as [14C]-labeled 22C fatty acid level at 300 uM after 3 hr by liquid scintillation counting (reference value: 5.5 +/- 0.2%); type: functional; parameters: scale not given: the % may be the effect or the level left
Hordeum vulgare [45] = experiment: Inhibition of fatty acid synthesis in Hordeum vulgare (barley) using [14C]malonate assessed as inhibition of [14C]-labeled 16C fatty acid production at 300 uM after 3 hr by liquid scintillation counting; type: functional, organism-based
Cucumis sativus [46] = experiment: as §2, with “Cucumis sativus (cucumber)” for “Hordeum vulgare (barley)”, “6.4” for “5.7”, “1.2” for “0.5”; type: functional

SMILES: Cc1ccccc1CO[C@H]1C[C@]2(C(C)C)CC[C@@]1(C)O2 (relative stereo) [REL-CINMETHYLIN]
- Activity (Hordeum vulgare [1]): 5.8%
- inhibition (Cucumis sativus [2]): inactive
- Activity (Cucumis sativus [3]): 28.9%
- Activity (Cucumis sativus [4]): 4.8%
- inhibition (Cucumis sativus [5]): inactive
- inhibition (Hordeum vulgare [6]): inactive
- Activity (Hordeum vulgare [7]): 67.7%
- Activity (Hordeum vulgare [8]): 5.1 ×10⁶ dpm
- Activity (Cucumis sativus [9]): 13.4%
- Activity (Hordeum vulgare [10]): 20.9%
- inhibition (Cucumis sativus [11]): inactive
- inhibition (Cucumis sativus [12]): inactive
- Activity (Cucumis sativus [13]): 4.2%
- inhibition (Cucumis sativus [14]): inactive
- inhibition (Hordeum vulgare [15]): inactive
- inhibition (Hordeum vulgare [16]): inactive
- Activity (Cucumis sativus [17]): 48.6%
- inhibition (Cucumis sativus [18]): inactive
- inhibition (Hordeum vulgare [19]): inactive
- Activity (Hordeum vulgare [20]): 5.7%
- Activity (Cucumis sativus [21]): 8.4 ×10⁶ dpm
- inhibition (Hordeum vulgare [22]): inactive
- inhibition (Hordeum vulgare [23]): inactive

SMILES: CN(C)C(=O)C(c1ccccc1)c1ccccc1 [DIPHENAMIDE]
- Activity (Cucumis sativus [24]): 13.9%
- inhibition (Hordeum vulgare [25]): inactive
- inhibition (Cucumis sativus [26]): inactive
- inhibition (Hordeum vulgare [27]): inactive
- Activity (Hordeum vulgare [28]): 66.1%
- inhibition (Cucumis sativus [29]): inactive
- Activity (Cucumis sativus [30]): 26.8%
- Activity (Hordeum vulgare [31]): 4 ×10⁶ dpm
- inhibition (Cucumis sativus [32]): inactive
- inhibition (Cucumis sativus [33]): inactive
- inhibition (Cucumis sativus [34]): inactive
- Activity (Cucumis sativus [35]): 5.1%
- inhibition (Hordeum vulgare [36]): inactive
- Activity (Hordeum vulgare [37]): 18.4%
- inhibition (Cucumis sativus [38]): inactive
- Activity (Cucumis sativus [39]): 48.1%
- Activity (Hordeum vulgare [40]): 7.9%
- inhibition (Hordeum vulgare [41]): inactive
- Activity (Cucumis sativus [42]): 6.1%
- inhibition (Hordeum vulgare [43]): inactive
- Activity (Hordeum vulgare [44]): 7.6%
- inhibition (Hordeum vulgare [45]): inactive
- Activity (Cucumis sativus [46]): 6.9 ×10⁶ dpm
